Test system: E. coli MG1655
Experiment: Growth of E. coli MG1655 in TMI-supplemented media with fluorofolin
Type: cell-based, Escherichia coli

## Nc1nc(N)c2c(ccc3c2ccn3Cc2ccnc(F)c2)n1 [fluorofolin]
Fluorofolin + TMI, Time 420 min
  OD600 of E. coli MG1655: 0.1585
Fluorofolin + TMI, Time 430 min
  OD600 of E. coli MG1655: 0.163
Fluorofolin + TMI, Time 440 min
  OD600 of E. coli MG1655: 0.167
Fluorofolin + TMI, Time 450 min
  OD600 of E. coli MG1655: 0.1715
Fluorofolin + TMI, Time 460 min
  OD600 of E. coli MG1655: 0.176
Fluorofolin + TMI, Time 470 min
  OD600 of E. coli MG1655: 0.181
Fluorofolin + TMI, Time 480 min
  OD600 of E. coli MG1655: 0.1855
Fluorofolin + TMI, Time 490 min
  OD600 of E. coli MG1655: 0.19
Fluorofolin + TMI, Time 500 min
  OD600 of E. coli MG1655: 0.1955
Fluorofolin + TMI, Time 510 min
  OD600 of E. coli MG1655: 0.2005
Fluorofolin + TMI, Time 520 min
  OD600 of E. coli MG1655: 0.2055
Fluorofolin + TMI, Time 530 min
  OD600 of E. coli MG1655: 0.21
Fluorofolin + TMI, Time 540 min
  OD600 of E. coli MG1655: 0.2145
Fluorofolin + TMI, Time 970 min
  OD600 of E. coli MG1655: 0.33
Fluorofolin, Time 10 min
  OD600 of E. coli MG1655: -0.0085
Fluorofolin, Time 70 min
  OD600 of E. coli MG1655: -0.005
Fluorofolin, Time 80 min
  OD600 of E. coli MG1655: -0.003
Fluorofolin, Time 90 min
  OD600 of E. coli MG1655: -0.0015
Fluorofolin, Time 100 min
  OD600 of E. coli MG1655: 0.001
Fluorofolin, Time 110 min
  OD600 of E. coli MG1655: 0.0035
Fluorofolin, Time 120 min
  OD600 of E. coli MG1655: 0.006
Fluorofolin, Time 130 min
  OD600 of E. coli MG1655: 0.009
Fluorofolin, Time 140 min
  OD600 of E. coli MG1655: 0.0125
Fluorofolin, Time 150 min
  OD600 of E. coli MG1655: 0.0155
Fluorofolin, Time 160 min
  OD600 of E. coli MG1655: 0.018
Fluorofolin, Time 170 min
  OD600 of E. coli MG1655: 0.02
Fluorofolin, Time 180 min
  OD600 of E. coli MG1655: 0.023
Fluorofolin, Time 190 min
  OD600 of E. coli MG1655: 0.0255
Fluorofolin, Time 200 min
  OD600 of E. coli MG1655: 0.028
Fluorofolin, Time 210 min
  OD600 of E. coli MG1655: 0.0305
Fluorofolin, Time 220 min
  OD600 of E. coli MG1655: 0.033
Fluorofolin, Time 230 min
  OD600 of E. coli MG1655: 0.035
Fluorofolin, Time 240 min
  OD600 of E. coli MG1655: 0.0365
Fluorofolin, Time 250 min
  OD600 of E. coli MG1655: 0.0395
Fluorofolin, Time 260 min
  OD600 of E. coli MG1655: 0.0405
Fluorofolin, Time 270 min
  OD600 of E. coli MG1655: 0.042
Fluorofolin, Time 280 min
  OD600 of E. coli MG1655: 0.044
Fluorofolin, Time 290 min
  OD600 of E. coli MG1655: 0.0455
Fluorofolin, Time 300 min
  OD600 of E. coli MG1655: 0.0475
Fluorofolin, Time 310 min
  OD600 of E. coli MG1655: 0.0485
Fluorofolin, Time 320 min
  OD600 of E. coli MG1655: 0.0505
Fluorofolin, Time 330 min
  OD600 of E. coli MG1655: 0.0515
Fluorofolin, Time 340 min
  OD600 of E. coli MG1655: 0.053
Fluorofolin, Time 350 min
  OD600 of E. coli MG1655: 0.0545
Fluorofolin, Time 360 min
  OD600 of E. coli MG1655: 0.0555
Fluorofolin, Time 370 min
  OD600 of E. coli MG1655: 0.0565
Fluorofolin, Time 380 min
  OD600 of E. coli MG1655: 0.0575
Fluorofolin, Time 390 min
  OD600 of E. coli MG1655: 0.058
Fluorofolin, Time 400 min
  OD600 of E. coli MG1655: 0.059
Fluorofolin, Time 410 min
  OD600 of E. coli MG1655: 0.0595
Fluorofolin, Time 420 min
  OD600 of E. coli MG1655: 0.0605
Fluorofolin, Time 430 min
  OD600 of E. coli MG1655: 0.061
Fluorofolin, Time 440 min
  OD600 of E. coli MG1655: 0.0615
Fluorofolin, Time 450 min
  OD600 of E. coli MG1655: 0.062
Fluorofolin, Time 460 min
  OD600 of E. coli MG1655: 0.062
Fluorofolin, Time 470 min
  OD600 of E. coli MG1655: 0.063
Fluorofolin, Time 480 min
  OD600 of E. coli MG1655: 0.0635
Fluorofolin, Time 490 min
  OD600 of E. coli MG1655: 0.0635
Fluorofolin, Time 500 min
  OD600 of E. coli MG1655: 0.064
Fluorofolin, Time 510 min
  OD600 of E. coli MG1655: 0.064
Fluorofolin, Time 520 min
  OD600 of E. coli MG1655: 0.064
Fluorofolin, Time 530 min
  OD600 of E. coli MG1655: 0.064
Fluorofolin, Time 540 min
  OD600 of E. coli MG1655: 0.064
Fluorofolin, Time 970 min
  OD600 of E. coli MG1655: 0.053

From paper PMC11087268, “A folate inhibitor exploits metabolic differences in Pseudomonas aeruginosa for narrow-spectrum targeting” (Nature Microbiology, 2024)
